Assay results as given in paper PMC11747885, “Potent inhibitors of the human RNA ligase Rlig1 highlights its role in RNA integrity maintenance under oxidative cellular stress” (Chemical Science, 2025).
“And” between values parts separate entries of the source, which are not always exact repeats. Identical values can stand only once. Like-named read-outs stand apart in the source and are kept apart here.

Experiments:
Rlig1-AMP = molecular target: T1, Rlig1-AMP (Homo sapiens, UniProt Q8N999); experiment: FRET-based high-throughput screening of inhibitors for Rlig1-AMP; assay type: biochemical; conditions: HTS hits; for 1-D Distance: difference of raw data w/o and w enzyme; for Raw data [w Enyzm]: with enzyme; for Raw data [w/o Enzym]: without enzyme
T1 construct: made in house; host or cells: E. coli BL21 (DE3), pET15b-Rlig1

c-Myc-Max = test system: c-Myc-Max; parameters: method as in MedChemExpress; conditions: c-Myc-Max dimerization; ref MedChemExpress; cited from earlier work
B-Raf kinase = molecular target: B-Raf kinase; parameters: method as in MedChemExpress; conditions: ref MedChemExpress; cited from earlier work
GLP = test system: GLP; parameters: method as in MedChemExpress; conditions: ref MedChemExpress; cited from earlier work
G9a = test system: G9a; parameters: method as in MedChemExpress; conditions: ref MedChemExpress; cited from earlier work
HCT-116 = test system: HCT-116; parameters: method as in MedChemExpress; conditions: ref MedChemExpress, read-out: IC50, Pol I-mediated rRNA synthesis; cited from earlier work
MIA PaCa-2 cells = test system: MIA PaCa-2 cells; parameters: method as in MedChemExpress; conditions: ref MedChemExpress, read-out: IC50, Pol I-mediated rRNA synthesis; cited from earlier work
A375 = test system: A375; parameters: method as in MedChemExpress; conditions: ref MedChemExpress, read-out: IC50, Pol I-mediated rRNA synthesis; cited from earlier work
Pol II = test system: Pol II; parameters: method as in MedChemExpress; conditions: ref MedChemExpress; cited from earlier work
Pim-1 = test system: Pim-1; parameters: method as in MedChemExpress; conditions: ref MedChemExpress; cited from earlier work
[1] = ref MedChemExpress, cited from earlier work
Pim-2 = test system: Pim-2; parameters: method as in MedChemExpress; conditions: ref MedChemExpress; cited from earlier work
PU.1 = test system: PU.1; parameters: method as in MedChemExpress; conditions: in vitro; ref MedChemExpress; read-out: IC50, PU.1 binding; cited from earlier work
λB = molecular target: λB; parameters: method as in MedChemExpress; conditions: in vitro; ref MedChemExpress; read-out: KD, DB1976-λB affinity; cited from earlier work
[2] = test system: transcription factor PU.1; parameters: method as in MedChemExpress; conditions: ref MedChemExpress; cited from earlier work
FLT3-D835Y = test system: FLT3-D835Y; parameters: method as in MedChemExpress; conditions: ref MedChemExpress; cited from earlier work
FLT3 wild type = test system: FLT3 wild type; parameters: method as in MedChemExpress; conditions: ref MedChemExpress; cited from earlier work
ALK2 = test system: ALK2; parameters: method as in MedChemExpress; conditions: ref MedChemExpress; cited from earlier work
tau protein = molecular target: tau protein; parameters: method as in MedChemExpress; conditions: tau protein aggregation; ref MedChemExpress; cited from earlier work
Shp1 (SH-PTP1) = test system: Shp1 (SH-PTP1); parameters: method as in MedChemExpress; conditions: ref MedChemExpress; cited from earlier work
BCL-2 = molecular target: BCL-2; parameters: method as in MedChemExpress; conditions: ref MedChemExpress; cited from earlier work
JAK2 = test system: JAK2; parameters: method as in MedChemExpress; conditions: ref MedChemExpress; cited from earlier work
Tyk2 = test system: Tyk2; parameters: method as in MedChemExpress; conditions: ref MedChemExpress; cited from earlier work
JAK3 = test system: JAK3; parameters: method as in MedChemExpress; conditions: ref MedChemExpress; cited from earlier work
JAK1 = test system: JAK1; parameters: method as in MedChemExpress; conditions: ref MedChemExpress; cited from earlier work
NMDA receptor = molecular target: NMDA receptor; parameters: method as in MedChemExpress; conditions: ref MedChemExpress; cited from earlier work
CDK7 = test system: CDK7; parameters: method as in MedChemExpress; conditions: ref MedChemExpress; cited from earlier work
BRD4 BD2 = test system: BRD4 BD2; parameters: method as in MedChemExpress; conditions: ref MedChemExpress; cited from earlier work
BRD4 BD1 = test system: BRD4 BD1; parameters: method as in MedChemExpress; conditions: ref MedChemExpress; cited from earlier work
[3] = normalised value of 1-D Distance

T1 sequence (Q8N999 whole entry): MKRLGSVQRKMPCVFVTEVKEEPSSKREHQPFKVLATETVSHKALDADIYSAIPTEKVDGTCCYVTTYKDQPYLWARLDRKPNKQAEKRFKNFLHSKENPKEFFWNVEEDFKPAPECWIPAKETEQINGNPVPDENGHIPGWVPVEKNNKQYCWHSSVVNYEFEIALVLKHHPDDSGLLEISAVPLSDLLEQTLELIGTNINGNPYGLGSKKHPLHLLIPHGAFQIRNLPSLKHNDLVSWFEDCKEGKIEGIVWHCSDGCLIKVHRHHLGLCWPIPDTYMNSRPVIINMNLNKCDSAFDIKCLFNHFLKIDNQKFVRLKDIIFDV

O=[N+]([O-])c1ccc(Nc2ccccc2-c2ccccc2)c2nonc12 [10074-G5]
1-D Distance (Rlig1-AMP): 758
1-D Distance.npi (Rlig1-AMP; normalized value (npi)): 91.4368
Raw data [w Enyzm] (Rlig1-AMP): 1415
Raw data [w/o Enzym] (Rlig1-AMP): 2173
IC50 (c-Myc-Max): 146 µM

CN(C)Cc1ccc(-c2cnn3c(-c4cccc(NC(=O)c5cccc(C(F)(F)F)c5)c4)ccnc23)cc1 [B-Raf IN 1]
1-D Distance (Rlig1-AMP): 563
1-D Distance.npi (Rlig1-AMP; normalized value (npi)): 95.4397
Raw data [w Enyzm] (Rlig1-AMP): 7195
Raw data [w/o Enzym] (Rlig1-AMP): 7758

COc1cc2c(NC3CCN(C)CC3)cc(-c3ccc(C)o3)nc2cc1OCCCN1CCCC1 [CM-272]
1-D Distance (Rlig1-AMP): 449
1-D Distance.npi (Rlig1-AMP; normalized value (npi)): 99.0872
Raw data [w Enyzm] (Rlig1-AMP): 6004
Raw data [w/o Enzym] (Rlig1-AMP): 6453
IC50 (GLP): 0.002 µM

Cc1cnc(CNC(=O)c2c(=O)c3ccc(N4CCCN(C)CC4)nc3n3c2sc2ccccc23)cn1.Cl.Cl [CX-5461 dihydrochloride]
1-D Distance (Rlig1-AMP): 1694
1-D Distance.npi (Rlig1-AMP; [3]): 72.2021
Raw data [w Enyzm] (Rlig1-AMP): 7215
Raw data [w/o Enzym] (Rlig1-AMP): 8909
IC50 (HCT-116): 0.142 µM
IC50 (MIA PaCa-2 cells): 0.054 µM
IC50 (A375): 0.113 µM
IC50 (Pol II): ≥ 25 µM

CN1CCCN(C(=O)c2cccc(-c3ccc(/C=C4/C(=O)Nc5ccc(Cl)cc54)o3)c2)CC1 [CX-6258]
1-D Distance (Rlig1-AMP): 641
1-D Distance.npi (Rlig1-AMP; normalized value (npi)): 93.2533
Raw data [w Enyzm] (Rlig1-AMP): 5174
Raw data [w/o Enzym] (Rlig1-AMP): 5815
solubility ([1]; DMSO): ≥ 50 mg/mL and ≥ 108.24 mM
IC50 (Pim-2): 0.025 µM

Cl.Cl.N=C(N)c1ccc2nc(-c3ccc(-c4nc5ccc(C(=N)N)cc5[nH]4)[se]3)[nH]c2c1 [DB1976 (dihydrochloride)]
IC50 (PU.1): 0.01 µM
1-D Distance (Rlig1-AMP): 102
1-D Distance.npi (Rlig1-AMP; normalized value (npi)): 105.279
Raw data [w Enyzm] (Rlig1-AMP): 4805
Raw data [w/o Enzym] (Rlig1-AMP): 4703
solubility ([1]; DMSO): 62.5 mg/mL and 120.13 mM
solubility ([1]; H2O): 18.33 mg/mL and 35.23 mM
Kd (λB): 0.012 µM

CC(C)N=C(N)c1ccc2nc(-c3ccc(OCc4cccc(COc5ccc(-c6nc7ccc(C(N)=NC(C)C)cc7[nH]6)cc5)c4F)cc3)[nH]c2c1 [DB2313]
1-D Distance (Rlig1-AMP): 699
1-D Distance.npi (Rlig1-AMP; [3]): 88.7864
Raw data [w Enyzm] (Rlig1-AMP): 5551
Raw data [w/o Enzym] (Rlig1-AMP): 4852
PU.1 inhibitor with an apoptosis of [2]: DB2313 is a potent transcription factor PU.1 inhibitor with an apoptosis of 14 nM. DB2313 disrupts the interaction of PU.1 with target gene promoters. DB2313 induces apoptosis of acute myeloid leukemia (AML) cells, and has anticancer effects[1].

CN1CCC(Nc2nc(Nc3ccc(Oc4ccccc4)cc3)c3c(=O)[nH]cc(Br)c3n2)CC1 [G-749]
1-D Distance (Rlig1-AMP): 603
1-D Distance.npi (Rlig1-AMP; normalized value (npi)): 93.9141
Raw data [w Enyzm] (Rlig1-AMP): 7489
Raw data [w/o Enzym] (Rlig1-AMP): 8092
IC50 (FLT3-D835Y): 0.0006 µM
IC50 (FLT3 wild type): 0.0004 µM

c1cc(-c2cnn3cc(-c4ccc(N5CCNCC5)cc4)cnc23)c2cccnc2c1 [LDN-212854]
1-D Distance (Rlig1-AMP): 1181
1-D Distance.npi (Rlig1-AMP; normalized value (npi)): 85.2649
Raw data [w Enyzm] (Rlig1-AMP): 7408
Raw data [w/o Enzym] (Rlig1-AMP): 8589
solubility ([1]; DMSO): ≥ 30 mg/mL and ≥ 73.80 mM
IC50 (ALK2): 0.0013 µM

CN(C)c1ccc2c(c1)Sc1cc(N(C)C)ccc1N2.CS(=O)(=O)O.CS(=O)(=O)O [Leucomethylene blue (mesylate)]
1-D Distance (Rlig1-AMP): 1844
1-D Distance.npi (Rlig1-AMP; normalized value (npi)): 72.1191
Raw data [w Enyzm] (Rlig1-AMP): 4383
Raw data [w/o Enzym] (Rlig1-AMP): 6227
Ki (tau protein): 0.12 µM

O=S(=O)(O)c1ccc2cc(N=Nc3cc(S(=O)(=O)O)c4cccnc4c3O)ccc2c1 [NSC-87877]
1-D Distance (Rlig1-AMP): 982
1-D Distance.npi (Rlig1-AMP; normalized value (npi)): 87.5142
Raw data [w Enyzm] (Rlig1-AMP): 1020
IC50 (Shp1 (SH-PTP1)): 0.355 µM
solubility ([1]; DMSO): 25 mg/mL and 54.41 mM

COC1=CC(c2cc3ccccc3[nH]2)=N/C1=C\c1[nH]c(C)cc1C.CS(=O)(=O)O [Obatoclax (Mesylate)]
1-D Distance (Rlig1-AMP): 702
1-D Distance.npi (Rlig1-AMP; normalized value (npi)): 94.4219
Raw data [w Enyzm] (Rlig1-AMP): 1010
Raw data [w/o Enzym] (Rlig1-AMP): 1712
Ki (BCL-2): 0.22 µM

NC(=O)c1cnc2[nH]ccc2c1N[C@@H]1[C@@H]2CC3C[C@H]1C[C@@](O)(C3)C2 [Peficitinib]
1-D Distance (Rlig1-AMP): 1954
Raw data [w Enyzm] (Rlig1-AMP): 8816
Raw data [w/o Enzym] (Rlig1-AMP): 10770
IC50 (JAK2): 0.005 µM
IC50 (Tyk2): 0.0048 µM
IC50 (JAK1): 0.0039 µM

N[C@@H](Cc1cc(CP(=O)(O)O)cc(-c2ccccc2Cl)c1)C(=O)O [SDZ 220-581]
1-D Distance (Rlig1-AMP): 1679
1-D Distance.npi (Rlig1-AMP; normalized value (npi)): 76.8207
Raw data [w Enyzm] (Rlig1-AMP): 24871
Raw data [w/o Enzym] (Rlig1-AMP): 26550
solubility ([1]; DMSO): 8.57 mg/mL and 23.18 mM
pKi (NMDA receptor): SDZ 220-581 is an orally active, potent, competitive NMDA receptor antagonist with pKi value of 7.7[1].

CN(C)C/C=C/C(=O)Nc1ccc(C(=O)Nc2cccc(Nc3ncc(Cl)c(-c4c[nH]c5ccccc45)n3)c2)cc1.Cl [THZ1 (Hydrochloride)]
1-D Distance (Rlig1-AMP): 289
1-D Distance.npi (Rlig1-AMP; normalized value (npi)): 99.9172
Raw data [w Enyzm] (Rlig1-AMP): 6030
Raw data [w/o Enzym] (Rlig1-AMP): 5741
IC50 (CDK7): 0.0032 µM

Cc1cc(N=Nc2ccc3c(c2)CCC(=O)N3)c(N)cc1O [ZL0420]
IC50 (BRD4 BD2): 0.032 µM
1-D Distance (Rlig1-AMP): 1352
1-D Distance.npi (Rlig1-AMP; normalized value (npi)): 80.8903
Raw data [w Enyzm] (Rlig1-AMP): 1680
Raw data [w/o Enzym] (Rlig1-AMP): 3032
IC50 (BRD4 BD1): 0.027 µM
